In US20020023385A1, “Method of controlling seed disease” (priority 2000, published 2002):

Each substance was assayed on Xanthomonas campestris p.v. campestris (assay: Cross-streak culture screening for antagonistic bacteria). Settings: cross application on potato dextrose-broth-agar medium, 25° C., 3 days.
Format: cell-based
Experimental: Filamentous fungi and bacteria (hereinafter referred to as “candidate microorganisms” in general) isolated from a seed or a soil is streaked on a same medium as that of the pathogenic microorganisms of the seed borne disease which is a target to be controlled in a dual or cross manner and are cultured for several days under a temperature suitable for growing the pathogenic microorganisms (dual culture). After the microorganism have been cultured, growth thereof are observed; then, the one which apparently controlled the growth of the pathogenic microorganisms by the candidate microorganism is selected as the effective microorganism which has an antagonistic property (Laboratory Guide for Plant Pathology and Microbiology, 459-474, Satoshi Wakimoto et al., Soft Science Inc., 1993).
Each type of the above-described seeds was shaken in a physiological saline solution (a distilled water solution containing 0.85 weight % of sodium chloride) having 2.5 times the weight of the seeds for 2.5 hours. Then, the solution was evenly streaked on an albumin-agar culture medium. In six days after streaking, a colony which has emerged was isolated and, then, streaked on a potato dextrose-broth-agar culture medium (available from Difco Laborarories, Mich., U.S.A.) in a cross application manner against Xanthomonas campestris p.v. campestris to be cultured at 25° C. […] As a result, three bacterial strains under names of TK-12, TK-151, and TK-185 were obtained. Taxonomic properties of these three strains are shown below in Table 1.

Substance	control of growth of Xanthomonas campestris p.v. campestris
Leclercia adecarboxylata TK-151	controls growth of such Xanthomonas campestris p.v. campestris
Pantoea sp. TK-12	controls growth of such Xanthomonas campestris p.v. campestris
Pantoea sp. TK-185	controls growth of such Xanthomonas campestris p.v. campestris
